Target: PIK3CA (human) (UniProt P42336)
Experiment: Assessment of PIK3CA Kinase Activity

PIK3CA (human), sequence (P42336 whole entry, looked up): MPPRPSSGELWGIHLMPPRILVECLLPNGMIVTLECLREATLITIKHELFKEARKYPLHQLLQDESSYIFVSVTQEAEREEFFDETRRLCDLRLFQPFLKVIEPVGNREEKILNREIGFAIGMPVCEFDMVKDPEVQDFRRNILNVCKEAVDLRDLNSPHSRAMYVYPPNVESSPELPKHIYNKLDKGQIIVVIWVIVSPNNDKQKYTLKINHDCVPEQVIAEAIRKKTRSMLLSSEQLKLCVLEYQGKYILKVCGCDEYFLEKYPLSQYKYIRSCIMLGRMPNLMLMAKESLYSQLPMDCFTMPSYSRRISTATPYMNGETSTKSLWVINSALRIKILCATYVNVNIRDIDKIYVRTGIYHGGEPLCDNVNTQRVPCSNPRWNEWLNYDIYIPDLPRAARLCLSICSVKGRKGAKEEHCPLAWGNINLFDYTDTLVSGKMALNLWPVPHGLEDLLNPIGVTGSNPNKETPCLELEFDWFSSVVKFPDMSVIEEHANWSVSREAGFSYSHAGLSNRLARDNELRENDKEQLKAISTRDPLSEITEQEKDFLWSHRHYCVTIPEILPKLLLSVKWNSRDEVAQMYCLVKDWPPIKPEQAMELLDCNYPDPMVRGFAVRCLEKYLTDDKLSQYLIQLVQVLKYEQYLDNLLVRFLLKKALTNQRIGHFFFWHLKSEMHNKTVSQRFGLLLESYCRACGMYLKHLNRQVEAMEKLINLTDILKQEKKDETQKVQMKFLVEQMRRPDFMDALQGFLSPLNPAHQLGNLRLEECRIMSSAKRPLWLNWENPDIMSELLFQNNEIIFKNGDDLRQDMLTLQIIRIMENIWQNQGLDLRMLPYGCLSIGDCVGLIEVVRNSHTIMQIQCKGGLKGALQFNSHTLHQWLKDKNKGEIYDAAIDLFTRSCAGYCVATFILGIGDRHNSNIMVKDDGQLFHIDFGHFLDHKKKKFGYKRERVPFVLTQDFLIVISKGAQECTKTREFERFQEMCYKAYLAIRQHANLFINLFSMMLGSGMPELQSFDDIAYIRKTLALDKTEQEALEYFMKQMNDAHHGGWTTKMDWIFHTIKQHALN

| IC50 [nM] | SMILES |
| --- | --- |
| < 1000 | Cc1nc(-c2cn3c(n2)-c2ccc(-c4cnn(C)c4)cc2OCC3)n(C(C)C)n1 |
| < 1000 | Cc1nc(-c2cn3c(n2)-c2ccc(-c4cccnc4)cc2OCC3)n(C(C)C)n1 |
| < 1000 | CC(C)N1CCC(c2ccc3c(c2)OCCn2cc(-c4ncnn4C(C)C)nc2-3)C(C(N)=O)C1 (configuration not stated) |
| < 1000 | Cn1ccnc1C(O)CNc1cc2c(cn1)-c1nc(-c3ncnn3-c3ccc(F)cc3F)cn1CCO2 (configuration not stated) |
| < 1000 | Cc1nc(-c2cn3c(n2)-c2ccc(CC(N)=O)cc2OCC3)n(C(C)C)n1 |
| < 1000 | CC(C)(O)CN1CC(c2ccc3c(c2)OCCc2cn(-c4ncnn4-c4ccc(F)cc4F)nc2-3)C1 |
| < 1000 | Cc1ncc(-c2ccc3c(c2)OCCn2cc(-c4ncnn4C(C)C)nc2-3)n1C |
| < 1000 | CC(C)n1ncnc1-c1cn2c(n1)-c1ccncc1OCC2 |
| < 1000 | CC(C)n1ncnc1-c1cn2c(n1)-c1ccc(CCS(N)(=O)=O)cc1OCC2 |
| < 1000 | CC(C)n1ncnc1-n1cc2c(n1)-c1cc(C(=O)N3CCNCC3)ccc1OCC2 |
| < 1000 | Cc1nc(-c2cn3c(n2)-c2cnc(N4C[C@@H](F)C[C@H]4C(N)=O)cc2OCC3)n(C(C)C)n1 |
| < 1000 | Cc1ccc2c(c1)OCCn1cc(-c3nc(C)nn3C(C)C)nc1-2 |
| < 1000 | CC(C)C(Oc1ccc2c(c1)OCCn1cc(-c3ncnn3C(C)C)nc1-2)C(N)=O (configuration not stated) |
| < 1000 | CC(C)n1ncnc1-c1cc2n(n1)-c1cc(C3CN(CCO)C3)ccc1OCC2 |
| < 1000 | Cc1nc(-c2cn3c(n2)-c2ccc(-c4cnc(N(C)C)nc4)cc2OCC3)n(C(C)C)n1 |
| < 1000 | OCc1nc(-c2cn3c(n2)-c2cnc(Cl)cc2OCC3)n(CC(F)(F)F)n1 |
| < 1000 | Nc1ccc2c(c1)OCCn1cc(-c3ncnn3CC(F)(F)F)nc1-2 |
| < 1000 | CC(C)n1ncnc1-c1cn2c(n1)-c1ccc(N[C@@H](C)C(N)=O)cc1OCC2 |
| < 1000 | CC(C)n1ncnc1-c1cn2c(n1)-c1ccc(C3CCN(C(C)(C)C(N)=O)CC3)cc1OCC2 |
| < 1000 | CN(C)c1cc2c(cn1)-c1nc(-c3nc(CO)nn3CC(F)(F)F)cn1CCO2 |
| < 1000 | CS(=O)(=O)CCN1CCC(c2ccc3c(c2)-c2nn(-c4ncnn4-c4ccc(F)cc4F)cc2CCO3)CC1 |
| < 1000 | Cc1nc(-c2cn3c(n2)-c2ccc(-c4cnn(CC(C)(C)O)c4)cc2OCC3)n(C(C)C)n1 |
| < 1000 | CC(C)n1ncnc1-c1cn2c(n1)-c1cnc(N3CCN(CC(N)=O)CC3)cc1OCC2 |
| < 1000 | CNc1cc2c(cn1)-c1nc(-c3ncnn3C(C)C)cn1CCO2 |

| IC50 [nM] | SMILES |
| --- | --- |
| < 1000 | CC(C)n1ncnc1-c1cn2c(n1)-c1ccc(CC(=O)O)cc1OCC2 |
| < 1000 | CC(C)n1ncnc1-c1cn2c(n1)-c1cc(-c3ccc[nH]c3=O)ccc1OCC2 |
| < 1000 | CC(C)(CO)NC(=O)c1ccc2c(c1)-c1nc(-c3ncnn3-c3ccc(F)cc3F)cn1CCO2 |
| < 1000 | CCNC(=O)CN1CCC(c2ccc3c(c2)OCCn2cc(-c4nc(C)nn4C(C)C)nc2-3)CC1 |
| < 1000 | Cc1nc(-c2cn3c(n2)-c2cnc(N4C[C@H](O)C[C@H]4C(N)=O)cc2OCC3)n(C(C)C)n1 |
| < 1000 | COc1ccc(CNc2cc3c(cn2)-c2nc(-c4ncnn4CC(F)(F)F)cn2CCO3)cc1OC |
| < 1000 | CC(C)n1nccc1-c1cn2c(n1)-c1cc(C(N)=O)ccc1OCC2 |
| < 1000 | CC(C)n1ncnc1-c1cn2c(n1)-c1ccc(C3CN(CC(N)=O)C3)cc1OCC2 |
| < 1000 | CC(C)n1ncnc1-c1cc2n(n1)-c1cc(C(=O)Nc3ccon3)ccc1OCC2 |
| < 1000 | COC(=O)c1ccc2c(c1)OCCn1cc(-c3cccc(C(F)(F)F)c3)nc1-2 |
| < 1000 | Nc1nc(-c2cn3c(n2)-c2cc(-c4cncnc4)ccc2OCC3)n(-c2ccccc2Cl)n1 |
| < 1000 | NC(=O)[C@@H]1CCCN1c1ccc2c(c1)OCCn1cc(-c3ncnn3CC(F)(F)F)nc1-2 |
| < 1000 | CC(C)n1ncnc1-c1cn2c(n1)-c1cnc(N)cc1OCC2 |
| < 1000 | CC(=O)Nc1ccc(-c2ccc3c(c2)OCCn2cc(-c4nc(C)nn4C(C)C)nc2-3)cn1 |
| < 1000 | Cc1nc(-c2cn3c(n2)-c2ccc([C@@H]4CCCN4C(N)=O)cc2OCC3)n(C(C)C)n1 |
| < 1000 | CCOC(=O)C(C)Cn1cc(-c2ccc3c(c2)OCCn2cc(-c4nc(C)nn4C(C)C)nc2-3)cn1 (configuration not stated) |
| < 1000 | CC(C)n1ncnc1-c1cn2c(n1)-c1cc(N3CCN(C)CC3)ncc1OCC2 |
| < 1000 | Cc1nc(-c2ccc3c(c2)OCCn2cc(-c4ncnn4C(C)C)nc2-3)cn1CCO |
| < 1000 | CC(C)n1ncnc1-c1cn2c(n1)-c1ccc(C3CN(CCS(=O)(=O)N(C)C)C3)cc1OCC2 |
| < 1000 | CNC(=O)CN1CCN(c2ccc3c(n2)OCCn2cc(-c4ncnn4C(C)C)nc2-3)CC1 |
| < 1000 | CC(C)n1ncnc1-c1cn2c(n1)-c1cnc(N3CC[C@H](C)[C@H]3C(N)=O)cc1OCC2 |
| < 1000 | CC(C)n1ncnc1-c1cn2c(n1)-c1ccc(CC(N)=O)cc1OCC2 |
| < 1000 | COCc1nc(-c2cn3c(n2)-c2ccc(C4CCN(CC(N)=O)CC4)cc2OCC3)n(C(C)C)n1 |
| < 1000 | CC[C@H](Oc1ccc2c(c1)OCCn1cc(-c3ncnn3C(C)C)nc1-2)C(N)=O |

| IC50 [nM] | SMILES |
| --- | --- |
| < 1000 | CC(C)n1ncnc1-c1cc2n(n1)-c1cc(CN3CCNC(=O)C3)ccc1OCC2 |
| < 1000 | CCN1CCC(c2ccc3c(c2)OCCn2cc(-c4ncnn4C(C)C)nc2-3)CC1 |
| < 1000 | NC(=O)CN1CC(c2ccc3c(c2)OCCc2cn(-c4ncnn4-c4ccc(F)cc4F)nc2-3)C1 |
| < 1000 | CC(C)n1nccc1-c1cn2c(n1)-c1cnc(Cl)cc1OCC2 |
| < 1000 | CC(C)n1ncnc1-c1cc2n(n1)-c1cc(CN3CCN(C(=O)CO)CC3)ccc1OCC2 |
| < 1000 | Nc1nc(-c2cn3c(n2)-c2cc(C4CC4)ccc2OCC3)n(CC(F)(F)F)n1 |
| < 1000 | CC(C)n1nc(N)nc1-c1cn2c(n1)-c1ccc(-c3cn(CCO)cn3)cc1OCC2 |
| < 1000 | Cc1nc(-c2cn3c(n2)-c2ccccc2OCC3)n(C(C)C)n1 |
| < 1000 | Fc1ccc(-n2ncnc2-c2cn3c(n2)-c2cnc(NCCCn4ccnc4)cc2OCC3)c(F)c1 |
| < 1000 | CC(C)n1ncnc1-c1cn2c(n1)-c1cc(-c3ccccc3)ccc1OCC2 |
| < 1000 | NC(=O)CNc1ccc2c(c1)OCCn1cc(-c3ncnn3CC(F)(F)F)nc1-2 |
| < 1000 | CC(C)n1ncnc1-c1cn2c(n1)-c1ccc(C3CCOCC3)cc1OCC2 |
| < 1000 | CC(C)n1ncnc1-c1cn2c(n1)-c1ccc(C3=CCN(C)CC3C(N)=O)cc1OCC2 (configuration not stated) |
| < 1000 | CC(CO)Nc1cc2c(cn1)-c1nc(-c3ncnn3CC(F)(F)F)cn1CCO2 (configuration not stated) |
| < 1000 | CC(C)n1ncnc1-c1cn2c(n1)-c1ccc(C3CN(CC(=O)N(C)C)C3)cc1OCC2 |
| < 1000 | Cc1nc(-c2cn3c(n2)-c2cnc(N4C[C@@H](O)C[C@H]4C(N)=O)cc2OCC3)n(C(C)C)n1 |
| < 1000 | CC(C)n1nc(CO)nc1-c1cn2c(n1)-c1ccccc1OCC2 |
| < 1000 | Cc1nc(-c2cn3c(n2)-c2ccc([C@@H]4CCNC[C@@H]4O)cc2OCC3)n(C(C)C)n1 |
| < 1000 | O=C1CCCN1CCNc1cc2c(cn1)-c1nc(-c3ncnn3-c3ccc(F)cc3F)cn1CCO2 |
| < 1000 | Cc1nc(-c2cn3c(n2)-c2ccc(-c4cn(CC(C)(C)O)cn4)cc2OCC3)n(C(C)C)n1 |
| < 1000 | CC(C)n1ncnc1-c1cn2c(n1)-c1cnc(N3CCC(C(N)=O)CC3)cc1OCC2 |
| < 1000 | CS(=O)(=O)CCNC(=O)c1ccc2c(c1)-c1nc(-c3ncnn3CC(F)(F)F)cn1CCO2 |
| < 1000 | Nc1nc(-c2cn3c(n2)-c2cc(C(F)(F)F)ccc2OCC3)n(CC(F)(F)F)n1 |
| < 1000 | CC(C)n1ncnc1-c1cn2c(n1)-c1cnc(N3CC[C@@H](O)[C@H]3C(N)=O)cc1OCC2 |

| IC50 [nM] | SMILES |
| --- | --- |
| < 1000 | CC(C)(CO)NC(=O)c1ccc2c(c1)-c1nc(-c3ncnn3CC(F)(F)F)cn1CCO2 |
| < 1000 | COC(=O)c1ccc2c(c1)OCCn1cc(-c3ccccc3C(C)C)nc1-2 |
| < 1000 | Cc1nc(-c2cn3c(n2)-c2ccc(CNC(N)=O)cc2OCC3)n(-c2ccc(F)cc2F)n1 |
| < 1000 | CC(C)n1ncnc1-c1cc2n(n1)-c1cc(C3CNC3)ccc1OCC2 |
| < 1000 | Cc1nc(-c2cn3c(n2)-c2cnc(NCC(N)=O)cc2OCC3)n(C(C)C)n1 |
| < 1000 | CNc1nc(-c2cn3c(n2)-c2ccccc2OCC3)n(C(C)C)n1 |
| < 1000 | CC(C)n1ncnc1-c1cn2c(n1)-c1cc(C(=O)N3CCS(=O)(=O)CC3)ccc1OCC2 |
| < 1000 | FC(F)(F)Cn1ncnc1-c1cc2n(n1)-c1cc(CNc3cnccn3)ccc1OCC2 |
| < 1000 | CC(C)n1ncnc1-c1cn2c(n1)-c1ccc(-c3cnc(N)nc3)cc1OCC2 |
| < 1000 | CC(C)Oc1ccc2c(c1)OCCn1cc(-c3ncnn3C(C)C)nc1-2 |
| < 1000 | CC(C)n1ncnc1-c1cn2c(n1)-c1ccc(-c3ccccc3CO)cc1OCC2 |
| < 1000 | c1cn(CCN2CCOCC2)c(-c2cn3c(n2)-c2cc(-c4cn[nH]c4)ccc2OCC3)n1 |
| < 1000 | CC(C)n1ncnc1-c1cn2c(n1)-c1cnc(N3CCCC3)cc1OCC2 |
| < 1000 | CC(C)n1ncnc1-c1cn2c(n1)-c1ccc(-c3cncn3C3CCCCO3)cc1OCC2 (configuration not stated) |
| < 1000 | C[C@@H]1CN(C(=O)c2ccc3c(c2)-c2nc(-c4ncnn4CC(F)(F)F)cn2CCO3)C[C@H](C)N1 |
| < 1000 | CC(C)C(Oc1cc2c(cn1)-c1nc(-c3ncnn3C(C)C)cn1CCO2)C(N)=O (configuration not stated) |
| < 1000 | CC(C)n1ncnc1-n1cc2c(n1)-c1ccc(Br)cc1OCC2 |
| < 1000 | CC(C)n1ncnc1-c1cc2n(n1)-c1cc(C(=O)N3CCS(=O)(=O)CC3)ccc1OCC2 |
| < 1000 | FC(F)(F)Cn1ncnc1-c1cc2n(n1)-c1cc(C3CCNCC3)ccc1OCC2 |
| < 1000 | CC(C)n1ncnc1-c1cn2c(n1)-c1ccc(N3CCN(CC(=O)N(C)C)CC3)nc1OCC2 |
| < 1000 | Cc1nc(-c2cn3c(n2)-c2ccc(-c4cn(CCO)cn4)cc2OCC3)n(C(C)C)n1 |
| < 1000 | COCc1nc(-c2cn3c(n2)-c2ccc(C)cc2OCC3)n(C(C)C)n1 |
| < 1000 | CC(C)n1ncnc1-c1cn2c(n1)-c1ccc(C(=O)NCCS(C)(=O)=O)cc1OCC2 |
| < 1000 | CS(=O)(=O)CCN1CCC(CO)(c2ccc3c(c2)-c2nn(-c4ncnn4-c4ccc(F)cc4F)cc2CCO3)CC1 |

| SMILES | IC50 [nM] |
| --- | --- |
| CC(C)n1ncnc1-c1cn2c(n1)-c1ccc(C3=C(C(N)=O)CN(C)CC3)cc1OCC2 | < 1000 |

From the Kinase Knowledgebase extract (Sharma et al. 2016)
